Test results: patent US7074605B2 (The Curators of the University of Missouri, priority 1997, dated 2006)

Biological target: Clostridium perfringens α-N-acetylgalactosaminidase (Clostridium perfringens, UniProt I1SB20)
Assay type: biochemical

Sequence of Clostridium perfringens α-N-acetylgalactosaminidase (I1SB20 1-629 limits assumed): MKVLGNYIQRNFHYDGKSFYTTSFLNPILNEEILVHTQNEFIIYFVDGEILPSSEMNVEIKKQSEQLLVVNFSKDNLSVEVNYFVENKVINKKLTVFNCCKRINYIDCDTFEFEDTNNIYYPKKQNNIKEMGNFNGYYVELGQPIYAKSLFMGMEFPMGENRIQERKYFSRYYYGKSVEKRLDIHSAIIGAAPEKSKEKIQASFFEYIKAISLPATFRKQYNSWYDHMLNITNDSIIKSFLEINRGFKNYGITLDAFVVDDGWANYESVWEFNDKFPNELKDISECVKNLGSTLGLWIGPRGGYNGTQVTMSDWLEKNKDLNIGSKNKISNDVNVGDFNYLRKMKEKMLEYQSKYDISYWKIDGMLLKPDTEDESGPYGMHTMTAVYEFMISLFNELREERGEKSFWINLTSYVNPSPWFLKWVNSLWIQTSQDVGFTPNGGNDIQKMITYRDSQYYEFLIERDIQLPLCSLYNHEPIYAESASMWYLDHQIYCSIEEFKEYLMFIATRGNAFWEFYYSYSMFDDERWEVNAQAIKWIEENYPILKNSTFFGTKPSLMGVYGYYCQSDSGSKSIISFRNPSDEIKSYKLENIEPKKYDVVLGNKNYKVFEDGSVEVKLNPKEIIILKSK

Row | SMILES | Activity [U/ml]
1 | CC(=O)NC1C(O)CC(Oc2ccc3c(C)cc(=O)oc3c2)(C(=O)O)OC1C(O)C(O)CO (stereo not drawn) [4MU-N-acetyl-α-neuraminic acid] | <0.001
2 | Cc1cc(=O)oc2cc(O[C@@H]3O[C@H](CO)[C@H](O)[C@H](O)[C@H]3O)ccc12 [4MU-α-D-galactopyranoside] | <0.001
3 | CC(=O)N[C@H]1[C@@H](Oc2ccc([N+](=O)[O-])cc2)O[C@H](CO)[C@H](O)[C@@H]1O [PNP-N-acetyl-α-D-galactosaminide] | 0.334
4 | CC(=O)N[C@H]1[C@@H](Oc2ccc([N+](=O)[O-])cc2)O[C@H](CO)[C@@H](O)[C@@H]1O [PNP-N-acetyl-α-D-glucosaminide] | <0.001
5 | CC(=O)N[C@H]1[C@H](Oc2ccc([N+](=O)[O-])cc2)O[C@H](CO)[C@H](O)[C@@H]1O [PNP-N-acetyl-β-D-galactosaminide] | <0.001
6 | CC(=O)N[C@H]1[C@H](Oc2ccc([N+](=O)[O-])cc2)O[C@H](CO)[C@@H](O)[C@@H]1O [PNP-N-acetyl-β-D-glucosaminide] | <0.001
7 | O=[N+]([O-])c1ccc(O[C@H]2O[C@H](CO)[C@H](O)[C@H](O)[C@H]2O)cc1 [PNP-α-D-galactopyranoside] | <0.001
8 | O=[N+]([O-])c1ccc(O[C@H]2O[C@H](CO)[C@@H](O)[C@H](O)[C@H]2O)cc1 [PNP-α-D-glucopyranoside] | <0.001
9 | O=[N+]([O-])c1ccc(O[C@H]2O[C@H](CO)[C@@H](O)[C@H](O)[C@@H]2O)cc1 [PNP-α-D-mannopyranoside] | <0.001
10 | O=[N+]([O-])c1ccc(O[C@@H]2OC[C@H](O)[C@H](O)[C@H]2O)cc1 [PNP-α-L-arabinopyranoside] | <0.001
11 | C[C@@H]1O[C@@H](Oc2ccc([N+](=O)[O-])cc2)[C@@H](O)[C@H](O)[C@@H]1O [PNP-α-L-fucopyranoside] | <0.001
12 | O=[N+]([O-])c1ccc(O[C@@H]2O[C@H](CO)[C@H](O)[C@H](O)[C@H]2O)cc1 [PNP-β-D-galactopyranoside] | <0.001
13 | O=[N+]([O-])c1ccc(O[C@@H]2O[C@H](CO)[C@@H](O)[C@H](O)[C@H]2O)cc1 [PNP-β-D-glucopyranoside] | <0.001
14 | C[C@@H]1O[C@H](Oc2ccc([N+](=O)[O-])cc2)[C@@H](O)[C@H](O)[C@@H]1O [PNP-β-L-fucopyranoside] | <0.001
